Reference: patent US20090257999A1, “Method of preventing contrast-induced nephropathy” (Inotek Pharmaceuticals Corporation, priority 2007, published 2009)

How the values were obtained:
Type in all cases: in vivo, rat
[1] = test system: diabetic rats; test: CIN animal model, Example 1: fractional excretion of Na+ (FENa, tubular function); conditions: at 96 hours
Procedure: (§1) Male Wistar rats (150-200 g; Harlan Nossanr) were housed in a controlled environment and provided with standard rodent chow and water.
After 12 hours of fasting, the animals received a single 60 mg/kg intravenous (i.v.) injection of streptozotocin (Sigma, St. Louis, Mo.) in 10 mM sodium citrate buffer, pH 4.5 (see figure showing CIN model). Control non-diabetic animals were fasted and received citrate buffer alone. After 24 hours, animals with blood glucose levels greater than 250 mg/dl were considered diabetic. All experiments were performed 10 days following the induction of diabetes. The diabetic state was evaluated daily by determination of the blood glucose levels. […]
At the indicated time point blood samples were collected via the lateral tail vein into S1/3 tubes containing serum gel. […] All plasma samples were analyzed for biochemical parameters within 24 hours of collection. Plasma concentrations of urea and creatinine were measured as indicators of impaired glomerular function. Urine samples were collected at 96 hour after contrast agent administration and the volume of urine produced was recorded. Urine concentrations of Na^+ were measured and were used in conjunction with plasma Na^+ concentrations to calculate fractional excretion of Na^+ (FENa) using standard formulae, which was used as an indicator of tubular function. […]

[2] = test system: malondialdehyde (MDA) in kidneys; test: Kidney malondialdehyde (MDA) levels, Example 1; conditions: at 96 hours
Procedure: (§2) Experimental model for assessing the effects of Metalloporphyrin A on CIN: Diabetic (n=8) for group #'s 1-9 or wild-type rats (n=10) for group #'s 10 and 11 were treated with drug 60 min prior to contrast agent administration. At the “0” time point, Iomeprol was administered with ensuing drug intervention dosing every 12 hours for Metalloporphyrin A from 24-84 hours or every 24 hours for NAC from 24-72 hours. At the 96 hour time point, kidneys were harvested for histopathology, MPO and MDA measurements. From 0-96 hours, plasma samples from all animals per group were screened for urea, creatinine, fractional excretion of Na^+ and NGAL.
Levels of malondialdehyde (MDA) in kidneys were determined as an indicator of lipid peroxidation following a protocol described previously (Davenport et. al. Clin. Transplant. 9 (3 Pt 1):171-51995).
Kidney tissue was weighed and homogenized in a 1.15% (wt/vol) KCl solution. A […] aliquot of homogenate was then removed and added to a reaction mixture containing […] 8.1% (wt/vol) lauryl sulfate, 1.5 mL 20% (vol/vol) acetic acid (pH 3.5), 1.5 mL 0.8% (wt/vol) thiobarbituric acid, and 700 mL distilled water. Samples were then boiled for one hour at 95° C. and centrifuged at 3000 g for 10 minutes. The absorbance of the supernatant was measured spectrophotometrically at […]. MDA levels were expressed as μM/100 mg wet tissue.

[3] = test system: diabetic rats; test: CIN animal model, Example 1: plasma urea and creatinine (glomerular dysfunction)
Procedure: as §1
After 12 hours of fasting, the animals received a single 60 mg/kg intravenous (i.v.) injection of streptozotocin (Sigma, St. Louis, Mo.) in 10 mM sodium citrate buffer, pH 4.5 (see figure showing CIN model). Control non-diabetic animals were fasted and received citrate buffer alone. After 24 hours, animals with blood glucose levels greater than 250 mg/dl were considered diabetic. All experiments were performed 10 days following the induction of diabetes. The diabetic state was evaluated daily by determination of the blood glucose levels. Upon the induction of the diabetic state the animals were presenting with a major risk factor pre-disposing the animals to CIN after the administration of contrast media.
Ten days following the induction of diabetes the rats were anesthetized with 90 mg/kg ketamine i.m. and 10 mg/kg xylazine i.m. and were treated with the contrast agent iomeprol (10 mL/kg injected via the lateral tail vein) or with 0.9% normal saline. The contrast agent used was the low osmolar non-ionic monomer iomeprol (Iomeron, 400 mgI mL-1; Bracco SpA, Milan, Italy) with an osmolality of 726±34 mosmol/kg H2O. Upon completion of surgical procedures, the animals were randomly allocated to eleven different experimental groups as tabulated below:
as §2
At the indicated time point blood samples were collected via the lateral tail vein into S1/3 tubes containing serum gel. The samples were centrifuged (6000 r.p.m. for 3 min) to separate plasma. All plasma samples were analyzed for biochemical parameters within 24 hours of collection. Plasma concentrations of urea and creatinine were measured as indicators of impaired glomerular function. Urine samples were collected at 96 hour after contrast agent administration and the volume of urine produced was recorded. Urine concentrations of Na^+ were measured and were used in conjunction with plasma Na^+ concentrations to calculate fractional excretion of Na^+ (FENa) using standard formulae, which was used as an indicator of tubular function.

[4] = test system: ICAM-1, Nitrotyrosine and PAR expression; test: Immunohistochemical localization of ICAM-1, nitrotyrosine and poly(ADP-ribose) in kidney, Example 1; conditions: diabetic rats + Iomeprol; metalloporphyrin A 1 mg/kg 60 min prior to Iomeprol, or NAC 10 mg/kg
Procedure: as §2
Rat kidneys fixed in 10% (wt/vol) neutral buffered paraformaldehyde and […] sections were prepared from paraffin-embedded tissues. After deparaffination, endogenous peroxidase was quenched using 0.3% (vol/vol) H2O2 in 60% methanol for 30 minutes. The sections were permeabilized using 0.1% (wt/vol) Triton X-100 in phosphate-buffered saline (PBS; 0.01 mol/L, pH 7.4) for 20 minutes. Nonspecific adsorption was minimized by incubating sections in 2% (vol/vol) normal goat serum in PBS for 20 minutes. Endogenous avidin- and biotin-binding sites were blocked by sequential incubation for 15 minutes with avidin (DBA, Milan, Italy) and biotin (DBA, Milan, Italy), respectively. The sections were then incubated overnight with primary antinitrotyrosine antibody (1:1000), anti-PAR antibody (1:500) and anti-ICAM-1 antibody (1:500). Separate sections were also incubated with control solutions consisting of PBS alone or a 1:500 dilution of nonspecific purified rabbit IgG (DBA). Specific labeling was detected using a biotin-conjugated goat antirabbit IgG (DBA) and avidin-biotin peroxidase (DBA). Samples were then viewed under a light microscope.

[5] = test system: diabetic rats; test: Histologic evaluation of kidney outer medulla damage, Example 1; conditions: at 96 hours
Procedure: as §2
At postmortem, a […] section of kidney was removed and placed in formalin and processed through to wax. […] sections were cut and stained with hematoxylin and eosin. Histologic assessment of tubular necrosis was determined semi-quantitatively using a method modified from McWhinnie et al, Transplantation. 42(4):352-81986, 1986.
Histologic assessment of outer medulla damage was examined by an experienced morphologist, who was not aware of the sample identity. […]

[6] = diabetic rats + i.v. Iomeprol, Metalloporphyrin A 30-1000 μg/kg or NAC 10 mg/kg i.p.
[7] = diabetic rats + i.v. saline (no contrast agent), Metalloporphyrin A 1000 μg/kg or NAC 10 mg/kg i.p.
[8] = diabetic rats + i.v. Iomeprol 10 ml/kg, Metalloporphyrin A 1000 μg/kg or NAC 10 mg/kg i.p., at 48, 72 and 96 hours
[9] = diabetic rats + i.v. saline (no contrast agent), NAC 10 mg/kg i.p., at 72 and 96 hours

With `CC(=O)N[C@@H](CS)C(=O)O` [NAC, N-acetylcysteine] the “fractional excretion of sodium (FENa)” value [1, 6] was “significant reductions”, the “fractional excretion of sodium (FENa)” value [1, 7] was “significantly reduced the increase” and the “MDA levels in the kidney” value [2, 6] was “significant reductions”. The “MDA levels in the kidney” value [2, 7] was “significantly reduced the increase”, the plasma creatinine concentration [3, 8] was “reductions” and the plasma urea concentration [3, 8] was “reductions”. The plasma creatinine concentration [3, 9] was “significantly reduced the increase”, the plasma urea concentration [3, 9] was “significantly reduced the increase” and the “ICAM-1 staining/expression in kidney medulla” value [4] was “afforded protection”. For the same compound, the “Nitrotyrosine staining/expression in kidney medulla” value [4] was “afforded protection”, the “PAR staining/expression in kidney medulla” value [4] was “afforded protection” and the “kidney injury (histological score)” value [5, 6] was “significant reductions”. For the same compound, the “kidney injury (histological score)” value [5, 7] was “significantly reduced”.
